From patent US4701456A, “Aminoalkoxybenzopyranones as antipsychotic and anxiolytic agents” (Warner-Lambert Company, priority 1985, dated 1987)
Where two headings read alike, the source gives them in different places.

How the values were obtained:
[1] = test system: mature male hooded rats (Long-Evans strain); test: animal model of anxiety based on the Geller-Seifter conflict test; assay type: in vivo; settings: for Total Punished Responses, Test: four rats
Text: The compounds of the present invention are new chemical substances which are also useful as pharmaceutical agents for the treatment of anxiety, i.e., anxiolytic agents. The antianxiety activity of a representative compound showing such activity for the compounds of the Formula I of the present invention is established by the use of an animal model of anxiety based on the Geller-Seifter conflict test described in Psychopharmacologia 1:482 (1960). Particularly the test follows initial shaping of response, an experimental conflict is induced, with animals trained until stable performance is established. Each animal serves as his own control. A description of the test is as follows:
Subjects: Mature male hooded rats (Long-Evans strain) 300-350 g body weight.
Apparatus: The experimental chamber consists of an inner test compartment with a lever mounted in one wall, a grid floor, an automatic feeding device, and a speaker. This chamber is enclosed by a sound insulated cubicle. Shock is provided by a LVE Model 1531 Constant Current SHocker. White (masking) noise is supplied by a LVE Model 1524 Noise Generator. A tone is produced by a LVE Model 1664 4.5 KC Tone Generator. All events and recordings are automatic and are programmed with appropriate electric timers and relay devices.
Procedure: Variable interval (VI)=two-minute; trial periods=four; shock=0.6 to 0.8 ma; food reward=Borden's Sweetened Condensed Milk diluted two parts water to one part milk; animals are deprived to 70% of their free feeding weight and are 23 hours starved; session length=one hour and 12 minutes.
The conflict is induced in the following manner: hungry rats are conditioned to press a lever to obtain a food reward. Reinforcement is contingent upon a lever press and occurs at variable intervals on the average of once every two minutes--VI two-minute (See Ferster; C. B., and Skinner, B. F., "In Schedules of Reinforcement, " Appleton-Century-Crofts,New York, 1957).
Spaced at regular intervals throughout the experimental session are four three-minute periods. During these trial periods a tone signals that every lever press will be food reinforced (CRF) and simultaneously punished by a painful electric foot shock.
In other words, food-deprived rats are trained to depress a lever in order to obtain food (sweetened condensed milk). Normally, the rats perform on a variable interval (VI) schedule on which a lever press results in food delivery on the average of once every two minutes; the time between successive periods of food availability is varied continuously such that animals respond at low but steady rates to obtain occasional access to food. After animals perform for 12 minutes on this schedule the house lights are extinguished and two small stimulus lights are illuminated, signaling the availability of food for each depression of the lever during a three minute trial period. During the trial, each depression of the lever also results in the delivery of mild electric shock (0.8 ma, 0.25 second duration) delivered through the grid floor (punishment). Thus, an approach-avoidance conflict is established with associated anxiety: food is readily available for each response, but each respone is punished (see Miller, N. E., "Some Recent Studies of Conflict Behavior and Drugs," Am. Pharmacologist, 16: 12, 1961). The scheduled used in our test employed four successive trials, each preceded by a 12-minute period during which the food-reinforced VI was in effect.
During sessions in which no drug is administered, rats normally respond at steady rates on the VI component but emit very few responses during the punished trial period.
The total number of punished responses made by the four subjects in the pretest and test sessions for the noted compound are as follows.
The pretest responses are cummulative responses emitted during the three minute tests from a previous nondrug session. […]

Swiss-Webster male mice = test: Mouse Activity and Screen Test Procedure (MAST); assay type: in vivo; settings: ip, 1 h, intraperitoneal, one hour prior to testing, active = rating A at 100 mg/kg or less, read-out: Dose at which an overall dose rating of A was obtained
Text: The compounds of the present invention are new chemical substances which are useful as pharmaceutical agents for the treatment of psychoses such as, for example, schizophrenia. The antipsychotic activity of representative compounds of the invention was established by the Mouse Activity and Screen Test Procedure (MAST) described below:
ANIMALS: Nine unfasted Swiss-Webster male mice (Buckberg Labs) weighing 20-30 g are equally divided into three groups for each drug dose to be tested. That is, data for each dose level was generated by three separate groups of three mice each.
DRUGS: A minimum of three dose levels (10, 30, and 100 mg/kg) are tested for each drug. Treatments are administered intraperitoneally one hour prior to testing. All dosages are calculated as parent compound and given in volumes of […]. Compounds are dissolved or suspended in 0.2% Methocel. Control animals are injected with Methocel.
TESTING: A two-part testing procedure is started one hour postinjection. First, the screen test is performed (see Pharmac Biochem Behav 6, 351-353, 1977). Briefly, this test consists of placing mice on individual wire screens which are then rotated 180° at the start of a 60-second observation period. The number of mice falling off the inverted screen is recorded.
Immediately following the screen test, the final phase of testing is initiated by placing each group of three mice in one actophotometer (Life Sciences, 22, 1067-1076, 1978). The actophotometer consists of a cylindrical chamber whose center is occupied by another cylinder which contains the illumination for six photocells located on the perimeter of the chamber. Six light-beam interruptions equal one count. Locomotor activity is recorded by computer at ten-minute intervals for 60 minutes.
DATA: The data obtained from the screen test are expressed as percent of mice falling off the screen. Data derived from locomotor activity of drug-treated mice are compared to the activity of vehicle-treated animals and are expressed as percent inhibition of spontaneous locomotion. All percentages reported for inhibition of locomotion are based upon data accumulated for one hour. Both phases of testing are graded: A=60-100%; C=31-59%; and N=0-30%. An overall dose rating is obtained by the following criteria. […]
______________________________________
Inhibition of Screen Test Dose
Locomotion rating with Failure Rating
Utilizing this procedure, an overall dose rating of A was obtained for the noted compounds at the indicated dose as reported in Table 1.

dopamine receptors = dopamine receptors (Rattus norvegicus, UniProt P61169); test: [3H] haloperidol binding assay (HRBA); set-up: species or system Long-Evans hooded rats; settings: displacement of [3H] haloperidol (0.6 nM), rat striatal membranes, pH 7.6, 25° C., 40 minutes
Sequence of dopamine receptors (P61169 whole entry): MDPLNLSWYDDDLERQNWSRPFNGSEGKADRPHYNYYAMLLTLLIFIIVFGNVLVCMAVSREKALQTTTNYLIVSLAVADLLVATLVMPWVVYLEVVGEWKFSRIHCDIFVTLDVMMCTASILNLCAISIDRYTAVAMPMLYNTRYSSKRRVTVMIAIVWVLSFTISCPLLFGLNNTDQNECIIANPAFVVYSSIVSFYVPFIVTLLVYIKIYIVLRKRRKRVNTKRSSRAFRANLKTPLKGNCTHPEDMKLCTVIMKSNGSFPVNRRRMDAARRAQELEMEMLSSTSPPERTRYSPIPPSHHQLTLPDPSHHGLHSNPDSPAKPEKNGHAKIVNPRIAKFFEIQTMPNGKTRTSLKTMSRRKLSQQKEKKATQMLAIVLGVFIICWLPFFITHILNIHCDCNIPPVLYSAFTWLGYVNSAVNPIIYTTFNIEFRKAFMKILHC
Experimental: [^3 H] Haloperidol Binding Assay. The relative affinities of compounds for dopamine receptors were evaluated on the basis of their ability to displace [^3 H] haloperidol from striatal membranes prepared from Long-Evans hooded rats. Rats were decapitated; the brains were removed, and the corpus striata were dissected. The corpus striata were homogenized in 40 volumes of […] Tris buffer (pH 7.6) and centrifuged. Pellets were rehomogenized in 50 volumes of the same buffer and used for the binding assay. Incubations were carried out in 10 ml of […] Tris-HCl buffer (pH 7.6) containing 2 mg/ml of original wet tissue weight of homogenate, 100 μl of test agent or solvent, and 0.6 nM of [^3 H] haloperidol. Nonspecific binding was determined in the presence of 0.1 μM (+)-butaclamol. Samples were incubated in reciprocating water bath at 25° C. for 40 minutes. Incubation was terminated by rapid filtration under reduced pressure through glass fiber filters (Whatman GF/B). The filters were rinsed three times with 10 ml of Tris-HCl buffer. The filters were placed in 10 ml of scintillation coctail (Beckman Ready-Solv HP) and shaken for one hour. Radioactivity retained on the filter was determined by liquid scintillation spectrophotometry. Compounds were initially evaluated at 10 nM. IC50 s when determined were calculated from a nonlinear computer curve, fit on the data from four or more concentrations, each done in triplicate.

O=c1ccc2ccc(OCCCN3CCN(c4ncccn4)CC3)cc2o1 [7-[3-[4-(2-pyrimidinyl)-1-piperazinyl]propoxy]-2H-1-benzopyran-2-one]
responding during trial periods ([1]; 27.5 mg/kg PO (no increase)): not at 27.5 mg/kg PO | Total Punished Responses, Test ([1]; 27.5 mg/kg PO, Pretest (nondrug session) 39): 44 | Total Punished Responses, Test ([1]; 55 mg/kg PO, Pretest (nondrug session) 78): 147 | rats with increases in punished responding ([1]; 80 mg/kg): four of four rats | Total Punished Responses, Test ([1]; 80 mg/kg PO, Pretest (nondrug session) 23): 77 | rats with increases in punished responding [1]; 55: three of four rats | gross sedation ([1]; 55 and 80 mg/kg PO): notable absence of gross sedation | responding during trial periods ([1]; 55 and 80 mg/kg PO): increased responding during trial periods | responding during the VI component ([1]; 55 and 80 mg/kg PO, unpunished responding): not accompanied by decreased responding during the VI component

CSc1ccc2c(c1)N(CCC1CCCCN1C)c1ccccc1S2 (stereo not drawn) [Thioridazine, reference compound]
minimal effective dose (Swiss-Webster male mice): 10 mg/kg

O=c1ccc2ccc(OCCCN3CCN(c4ccccc4)CC3)cc2o1 [drawing 15]
minimal effective dose (Swiss-Webster male mice): 3 mg/kg

Cc1cc(=O)oc2cc(OCCCN3CCN(c4ccccc4)CC3)ccc12 [drawing 16]
minimal effective dose (Swiss-Webster male mice): 1 mg/kg

O=c1ccc2ccc(OCCCN3CCN(c4ncccn4)CC3)cc2o1 [drawing 17]
minimal effective dose (Swiss-Webster male mice): 3 mg/kg

O=c1ccc2ccc(OCCCN3CC=C(c4ccccc4)CC3)cc2o1 [drawing 18]
minimal effective dose (Swiss-Webster male mice): 1 mg/kg

O=c1ccc2ccc(OCCCN3CCN(c4ccccc4)CC3)cc2o1 [drawing 20]
IC50 (dopamine receptors; read-out: IC50): 15 nM

Cc1cc(=O)oc2cc(OCCCN3CCN(c4ccccc4)CC3)ccc12 [drawing 21]
IC50 (dopamine receptors): 50 nM

O=c1ccc2ccc(OCCCN3CCN(c4ncccn4)CC3)cc2o1 [drawing 22]
IC50 (dopamine receptors; read-out: IC50): 930 nM

O=c1ccc2ccc(OCCCN3CC=C(c4ccccc4)CC3)cc2o1 [drawing 23]
IC50 (dopamine receptors): 16 nM
